Tests used:
CYP2C9 = target: T1, CYP2C9 (Homo sapiens, UniProt P11712); assay: N-in-one CYP inhibition assay, pooled human hepatic microsomes, CYP2C9 (OH-TOL); assay type: in vitro ADME
T1 construct: from tissue; host or cells: pooled human liver microsomes (n = 10 donors)
Experimental: (§1) N-in-one (“cocktail”) assay for measuring major CYP activities simultaneously, [55], [56] was employed to investigate human CYP-furathiocarb inhibitory interactions in pooled human hepatic microsomes. Furathiocarb (ﬁnal concentrations in the incubation mixture were 1, 5, 25, 50, and 100 µM) was added to the incubation mixture. The N-in-one was used earlier for the study of pesticide interactions and the details of the incubations with furathiocarb are described in Supplementary materials.
(§2) The kinetic parameters Vmax and Km were calculated by nonlinear regression. Bivariate linear Pearson’s correlation coefﬁcients (r2) were calculated between metabolite formations and model activities in the livers. GraphPad Prism 9 Software (Inc., San Diego, CA) Prism 9.0.0 (San Diego, CA) was used for kinetic parameters and correlation coefﬁcients analysis. The IC50 values were determined by linear regression analysis using OriginPro 2020 (MicroCal Software, Inc., Northampton, MA.
(§3) N-in-one assay was performed to investigate human CYP-furathiocarb inhibitory interactions. Furathiocarb (ﬁnal concentrations in the incubation mixture were 1, 5, 25, 50, and 100 µM) was added to the incubation mixture.
(§4) The N-in-one assay, analytical method and authentic standards have been described previously (Abass and Pelkonen 2013; Tolonen et al. 2007; Turpeinen et al. 2005). […]

CYP1A2 = target: T2, CYP1A2 (Homo sapiens, UniProt P05177); assay: biochemical; assay type: in vitro ADME
T2 construct: from tissue; host or cells: pooled human liver microsomes (n = 10 donors)
T2 sequence (P05177 1-516): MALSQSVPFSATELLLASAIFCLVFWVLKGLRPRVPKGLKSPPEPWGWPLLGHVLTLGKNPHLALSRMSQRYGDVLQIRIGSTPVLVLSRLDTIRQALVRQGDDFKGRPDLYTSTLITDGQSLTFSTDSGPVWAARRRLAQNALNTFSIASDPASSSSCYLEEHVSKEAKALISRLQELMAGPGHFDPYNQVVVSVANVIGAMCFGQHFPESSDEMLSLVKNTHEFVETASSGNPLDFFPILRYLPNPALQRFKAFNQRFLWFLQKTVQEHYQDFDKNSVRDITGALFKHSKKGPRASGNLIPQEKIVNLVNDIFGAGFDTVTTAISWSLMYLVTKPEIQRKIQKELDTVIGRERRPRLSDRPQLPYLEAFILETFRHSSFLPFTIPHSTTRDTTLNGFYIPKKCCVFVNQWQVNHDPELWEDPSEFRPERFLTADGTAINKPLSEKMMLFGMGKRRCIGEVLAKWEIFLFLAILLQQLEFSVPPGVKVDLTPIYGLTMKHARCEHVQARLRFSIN
Experimental: as §1, §2, §3, §4

T1 sequence (P11712 whole entry): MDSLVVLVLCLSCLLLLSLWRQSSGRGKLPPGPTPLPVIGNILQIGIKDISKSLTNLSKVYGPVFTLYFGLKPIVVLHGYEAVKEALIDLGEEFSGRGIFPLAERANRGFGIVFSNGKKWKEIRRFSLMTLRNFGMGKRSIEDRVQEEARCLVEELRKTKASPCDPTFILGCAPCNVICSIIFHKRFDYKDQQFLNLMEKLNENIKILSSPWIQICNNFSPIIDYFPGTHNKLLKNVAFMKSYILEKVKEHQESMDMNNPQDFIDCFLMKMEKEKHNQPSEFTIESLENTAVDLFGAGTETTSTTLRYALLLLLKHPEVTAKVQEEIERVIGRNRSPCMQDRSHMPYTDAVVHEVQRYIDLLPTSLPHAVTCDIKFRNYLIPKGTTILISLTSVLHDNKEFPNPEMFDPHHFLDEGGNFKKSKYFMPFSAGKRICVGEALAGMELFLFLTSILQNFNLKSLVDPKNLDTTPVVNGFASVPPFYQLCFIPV

For CCCCOC(=O)N(C)SN(C)C(=O)Oc1cccc2c1OC(C)(C)C2 [furathiocarb, Furathiocarb], the IC50 (CYP2C9) was 16.5 to 18.5 µM and the IC50 (CYP1A2) was 16.5 to 18.5 µM.

Reference: paper PMC8989696, “Characterization of furathiocarb metabolism in in-vitro human liver microsomes and recombinant cytochrome P450 enzymes” (Toxicology Reports, 2022)
